Experimental data: US7659277B2, “Ubiquitin ligase inhibitors and methods related thereto” (Proteologies, Ltd., priority 2003, dated 2010)
Where two headings read alike, the source gives them in different places.

Assays:
POSH = biological target: T1, POSH (Homo sapiens, UniProt Q7Z6J0); test: IC50 assay procedure: GST-POSH auto-ubiquitination, homogeneous time-resolved fluorescence (Ub-cryptate / anti-GST XL665); assay type: biochemical; details: ubiquitin ligase activity of POSH; GST-POSH 33 nM, 30 min preincubation
T1 construct: GST-POSH lot NB81/p.118 3.6 mg/ml; fused on or other part: GST tag, used for detection with anti-GST XL665
T1 sequence (Q7Z6J0 1-269 limits assumed): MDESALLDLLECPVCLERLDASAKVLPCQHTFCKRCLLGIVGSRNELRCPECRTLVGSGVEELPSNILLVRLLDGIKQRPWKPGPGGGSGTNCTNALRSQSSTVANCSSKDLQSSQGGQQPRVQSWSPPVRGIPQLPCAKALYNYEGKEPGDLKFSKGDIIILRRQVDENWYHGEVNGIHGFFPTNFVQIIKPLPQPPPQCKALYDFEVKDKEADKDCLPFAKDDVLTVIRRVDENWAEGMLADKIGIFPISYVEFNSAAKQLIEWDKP
In short: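 GST-POSH (33 nM) preincubated 30 min at RT with compounds (DMSO dilution series), then added to E1/E2/Eu-cryptate-ubiquitin enzyme mix for 30 min at 37 °C. Stopped with EDTA, anti-GST XL665 added 45 min at RT; HTRF signal of POSH auto-ubiquitination read, triplicates, IC50 from concentration series.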

Hmdm2 = Hmdm2 (Homo sapiens, UniProt Q00987); test: Selectivity (% A in 1 μM), ubiquitin ligase activity of Hmdm2; assay type: biochemical; details: read-out: Selectivity (% A* in 1 μM) Hmdm2
Hmdm2, sequence (Q00987 whole entry): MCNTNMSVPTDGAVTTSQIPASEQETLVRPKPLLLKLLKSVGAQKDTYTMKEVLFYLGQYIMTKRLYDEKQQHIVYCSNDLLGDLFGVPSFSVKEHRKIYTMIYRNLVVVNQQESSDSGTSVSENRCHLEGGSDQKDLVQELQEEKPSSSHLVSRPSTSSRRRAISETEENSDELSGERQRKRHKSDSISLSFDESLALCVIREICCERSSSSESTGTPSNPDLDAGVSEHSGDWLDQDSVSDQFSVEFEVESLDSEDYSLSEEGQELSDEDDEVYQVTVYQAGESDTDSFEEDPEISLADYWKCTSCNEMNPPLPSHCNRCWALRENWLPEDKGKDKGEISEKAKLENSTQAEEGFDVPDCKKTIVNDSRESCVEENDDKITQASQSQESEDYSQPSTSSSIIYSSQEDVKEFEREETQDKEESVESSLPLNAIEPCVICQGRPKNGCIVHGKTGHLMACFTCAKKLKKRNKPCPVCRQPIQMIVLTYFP

c-cbl = c-cbl (Homo sapiens, UniProt P22681); test: Selectivity (% A in 1 μM), ubiquitin ligase activity of c-cbl; assay type: biochemical; details: % activity at 1 μM compound; control is related to 100% activity; HTS protocol
E2 protein = assay type: biochemical; details: % activity at 1 μM compound; control is related to 100% activity; HTS protocol
HIV-1 = test: HIV maturation (budding) in virus-like particle assay, HIV-1 p24 antigen ELISA; assay type: cell-based; details: Human immunodeficiency virus 1, read-out: Budding (3 μM)
Excerpt: Compounds were further assessed for effects on maturation of HIV particles in a virus-like particle assay.

[1] = % activity at 1 μM compound, control is related to 100% activity, HTS protocol

Compound	IC50 (POSH) [nM]	remaining activity at 1 µM (Hmdm2; [1]) [%]	remaining activity at 1 µM (c-cbl) [%]	Selectivity (% A* in 1 μM) E2 (E2 protein) [%]	remaining activity at 1 µM (Hmdm2) [%]	activity at 3 µM (HIV-1) [%]
O=C(/C=C/c1cccnc1)c1ccc(C(=O)/C=C/c2cccnc2)cc1 [Compound 92]	500	105	111	125		
O=C(NC(C(Cl)(Cl)Cl)S(=O)(=O)c1ccccc1)c1ccc(Cl)cc1Cl (stereo not shown) [Compound 88]	250				118	57
Cc1[nH]c(=O)c(C(=O)/C=C/c2ccccc2F)c2c1CCCC2 [Compound 95]	1000	98	136	100		
COc1ccc(C(=O)CC2=C(O)C(=O)c3ccccc3C2=O)cc1 [Compound 89]	1000	79	109	70		
Cc1cc(OC(=O)Cn2c(=O)sc3ccccc32)ccc1Cl [Compound 103]	400				100	69
O=C(O)COc1ccc2c(c1)oc(=O)c1ccccc12 [Compound 85]	700				94	59
O=C(Nc1cccc2c(NC(=O)C3C4CCCCC43)cccc12)C1C2CCCCC21 (stereo not shown) [Compound 97]	600				123	64
O=C(Cc1ccccc1)N1N=CCC1(O)c1ccc(F)cc1 (stereo not shown) [Compound 94]	1000	103	106	49		
COc1ccc(Nc2ccc(O)c3c2C(=O)c2ccccc2C3=O)cc1 [Compound 100]	700	75	100	59		
COc1cc(C2Nc3ccccc3NC3=C2C(=O)CC(C)(C)C3)cc(Br)c1O (stereo not shown) [Compound 102]	800	97	111	99		
O=C1NC(=O)N(c2ccccc2)C(=O)/C1=C\c1ccc2c(c1)OCO2 [Compound 4]	800	105				
Cc1ccc(C(=O)NN=C2CCC(=NNC(=O)c3ccc(C)cc3)CC2)cc1 [Compound 93]	1300	106	84	78		
COC(=O)C1=C(C(=O)OC)SC(=C2C(=S)C(C)(C)N(C(C)=O)c3cc(C)ccc32)S1 [Compound 99]	1500	101	88	89		
Cc1cc(O)c(C(=O)/C=C/c2cccc(I)c2)c(=O)o1 [Compound 87]	800				119	29
O=C1c2ccccc2-c2nc3nonc3nc21 [Compound 91]	300				62	33
O=C(NCc1ccc(Cl)cc1)C(=O)Nc1ccccc1 [Compound 104]	1000	145	140	113		
O=c1oc2ccccc2c(O)c1C(=S)Nc1ccccc1 [Compound 96]	500				90	56
CN(C)c1ccc(/C=C2/C(=O)NC(=O)N(C3CCCCC3)C2=O)cc1 [Compound 3]	900	102				
